From patent US20120157471A1, “BENZIMIDAZOLE DERIVATIVES” (PFIZER INC., priority 2009, published 2012)

What was measured:
[1] = biological target: T1, human Smo (amino acids 181-787) (Homo sapiens, UniProt Q99835); assay: Smo radioligand competition binding assay (displacement of 3H-PF-03451358 from HEK293 membranes); settings: for inhibition at 0.05 µM: 0.05 μM test compound, displacement of 3H-PF-03451358, read-out: SMO % inh. @ 0.05 μM; for IC50: radioligand competition binding
T1 construct: expressed in transfected cells; membrane preparation
T1 sequence (Q99835 181-787): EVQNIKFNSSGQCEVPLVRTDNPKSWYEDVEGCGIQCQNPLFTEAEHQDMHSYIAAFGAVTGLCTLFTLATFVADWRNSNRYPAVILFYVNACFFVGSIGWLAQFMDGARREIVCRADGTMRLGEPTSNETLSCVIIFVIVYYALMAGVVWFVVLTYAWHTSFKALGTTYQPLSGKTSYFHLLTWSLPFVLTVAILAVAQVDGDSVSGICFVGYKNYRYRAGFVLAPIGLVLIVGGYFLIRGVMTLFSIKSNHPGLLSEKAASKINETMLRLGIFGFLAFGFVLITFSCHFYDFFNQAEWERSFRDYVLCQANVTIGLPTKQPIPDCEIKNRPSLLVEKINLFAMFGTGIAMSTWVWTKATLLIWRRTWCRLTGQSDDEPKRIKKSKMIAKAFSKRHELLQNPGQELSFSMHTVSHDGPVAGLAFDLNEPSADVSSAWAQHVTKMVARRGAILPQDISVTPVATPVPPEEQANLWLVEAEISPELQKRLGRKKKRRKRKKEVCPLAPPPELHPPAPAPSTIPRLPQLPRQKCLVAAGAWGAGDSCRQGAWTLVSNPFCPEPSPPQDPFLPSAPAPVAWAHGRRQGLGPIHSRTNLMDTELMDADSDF
Experimental: Membranes were prepared from a stable cell line created in HEK293FlpIn-TetR cells (Invitrogen) using FIp recombinase-mediated insertion of the pSecTag-FRT/V5-His vector containing a cDNA encoding amino acids 181-787 of human Smo fused to the murine lgk leader sequence to produce a cell surface expressed Smo 181-781 protein. Hygromycin-resistant clones were obtained and stained for LacZ expression (no expression indicates a correct knock-in of my fusion cDNA). LacZ-negative cells were analyzed for binding tritiated Smo antagonist PF-03451358. For membrane preparation, the HEK293 cells expressing Smo 181-781 were grown to 90% confluence in nine to fifteen 245 mm×245 mm×22 mm dishes, washed with Dulbecco's PBS (15 ml per dish) and harvested via scraping in 10 ml of DPBS. The cells were collected and centrifuged at 1500 rpm (400×g) for 10 min at 4° C. The cell pellets were re-suspended in 40 ml of cold DPBS and washed by centrifugation at 2300 rpm (950×g max) for 10 minutes at 4° C. The supernatant was aspirated and the cell pellet was snap frozen in a methanol/dry ice bath and stored at −70° C. For membrane preparation, 15 ml of Membrane Preparation Buffer (50 mM Tris-HCl pH 7.5, 250 mM sucrose with Roche complete protease cocktail tablets) is added to the tube containing the cell pellet, then cells are rapidly thawed, and homogenized using an Ultra-Turrax T8 (IKA Labortechnik) set on “6” for 15 seconds for 5-6 times in icy water bath. This homogenate was diluted up to 50 ml using Membrane Preparation Buffer and centrifuged at 35,000 rpm in a Beckman Ti45 rotor (140,000×g) for 35 minutes at 4° C. followed by aspiration of the supernatant and re-suspension of the pellet in 5 ml of Assay Buffer (50 mM Tris-HCl pH 7.5, 100 mM NaCl, 25 mM MgCl2, 1 mM EDTA, and 0.1% protease free bovine serum albumin). The re-suspended pellet is then homogenized in a glass tissue grinder. The re-suspended membranes are aliquoted (0.5 ml aliquots), snap frozen and stored at −70° C. Total protein in the membrane preparation is determined using the Pierce BCA protein assay (Pierce Chemical).
For the binding competition assay, 100 μl of Assay Buffer is added to all the wells of a 96 well GF/B filter plate (Millipore MultiScreen-HTS-FB cat# MSFBN6B50) for 10 minutes to pre-wet the filter prior to evacuation of the buffer (8 inches Hg for 8 seconds). To the pre-wet wells is added: 20 μl of Assay Buffer, 10 μl diluted test agent, 20 μl of ^3H-PF-3451358 (15 nM stock solution), and 50 μl of membrane preparation (40 μg total protein per well). The plates are sealed and mixed at room temperature for 5 min, incubated at room temperature for 2 hours, then washed 5 times with 100 μl/each of wash buffer and vacuum dried for 8 seconds at 8 inch Hg. The plate is then dried for one hour in a 60° C. oven prior to the addition of 45 μl of Microscint 20 (Packard, #6013621) to each well and incubation at RT for 30 minutes to 1 hour. The plate is counted in a TopCount scintillation counter (Perkin Elmer).
Data analysis uses Excel for % Inhibition and Graphpad Prism for IC50 calculation. Total binding (TB, in the absence of inhibitors)=average of ^3H PF-03451358 3 nM+SMO membrane (40 μg/wells (approx 5000-7000 CPM). Non-specific binding (NSB)=average of ^3H PF-03451358 (3 nM)+cold PF-03451358 (30 μM)+SMO membrane (approx 600-1200 CPM). Specific binding (SB)=(total binding−non-specific binding). % Inhibition=[1−(compound Specific binding/control Specific binding)]×100%. IC50 is calculated by fitting the data to the four parameter sigmoidal dose-response curve (variable slope) Y=Bottom+(Top-Bottom)/(1+10̂((LogEC50−X)*HillSlope)). X is the logarithm of the inhibitor concentration. Y is the response; Y starts at Bottom and goes to Top with a sigmoid shape.

Gli-Luc/MEF cells (Smo) = assay: Gli-Luc/MEF assay (Shh-stimulated luciferase reporter under the Gli response element); format: cell-based, mouse; settings: Mus musculus, MEF, 48 h
Experimental: The Gli-Luc/MEF cells obtained from Gli-Luc transgenic mice (Pfizer CoE, Genetically Modified Mice) contain a luciferase reporter gene under the control of the Gli response element. Luciferase activity stimulated with Sonic hedgehog ligand was inhibited by Smo inhibitors, and IC50 was subsequently calculated.
Plates were incubated at 37° C. and 5% CO2 overnight. On day two, cells were dosed with test compounds at a final concentration ranging from […] to 50 μM at a 3-time series dilution. Immediately after dosing cells with compounds, recombinant mouse sonic hedgehog (Shh, R&D Systems 464-SH) was added to a final concentration of 2 μg/mL. The cells were incubated with compounds and Shh for 48 hours at 37° C. and 5% CO2. Luciferase assays were conducted on Day 4 using the Bright-Glo Luciferase assay system (Promega E2620) according to Promega's protocol. Briefly, Bright-Glo luciferase reagent was made up and 25 uL were added to each well of the 384-well plate containing media. Plates were kept at room temperature for 5 minutes, and then read on an Envision Luminescence plate reader (Perkin-Elmer). IC50 of the inhibition was calculated by using GraphPad Prism.

Cn1c(-c2cc(N3CC(CS(C)(=O)=O)C3)ncc2Cl)nc2ccccc21 [Example A-211, 2-(5-chloro-2-{3-[(methylsulfonyl)methyl]azetidin-1-yl}pyridin-4-yl)-1-methyl-1H-benzimidazole]
inhibition at 0.05 µM [1]: 104%
IC50 [1]: 36 nM
IC50 (Gli-Luc/MEF cells (Smo)): 28.4 nM

CNC(=O)c1[nH]nc2c1CN(c1cc(-c3nc4ccccc4n3C)c(Cl)cn1)CC2 [Example A-114, 5-[5-chloro-4-(1-methyl-1H-benzimidazol-2-yl)pyridin-2-yl]-N-methyl-4,5,6,7-tetrahydro-1H-pyrazolo[4,3-c]pyridine-3-carboxamide]
inhibition at 0.05 µM [1]: 71%
IC50 [1]: 140 nM
IC50 (Gli-Luc/MEF cells (Smo)): 47 nM

Cn1c(-c2cc(N3CCN(CCO)CC3)ncc2Cl)nc2ccccc21 [Example A-213, 2-{4-[5-chloro-4-(1-methyl-1H-benzimidazol-2-yl)pyridin-2-yl]piperazin-1-yl}ethanol]
inhibition at 0.05 µM [1]: 83%
IC50 [1]: 78 nM
IC50 (Gli-Luc/MEF cells (Smo)): 56.8 nM

Cn1c(-c2cc(N3CCOCC(O)C3)ncc2Cl)nc2ccccc21 (stereo not drawn) [Example A-53, 4-[5-chloro-4-(1-methyl-1H-benzimidazol-2-yl)pyridin-2-yl]-1,4-oxazepan-6-yl]
inhibition at 0.05 µM [1]: 98%
IC50 [1]: 12 nM
IC50 (Gli-Luc/MEF cells (Smo)): 9 nM

CN(CC(C)(C)O)c1cc(-c2nc3ccccc3n2C)c(Cl)cn1 [Example A-209, 1-{[5-chloro-4-(1-methyl-1H-benzimidazol-2-yl)pyridin-2-yl](methyl)amino}-2-methylpropan-2-ol]
inhibition at 0.05 µM [1]: 97%
IC50 [1]: 18 nM
IC50 (Gli-Luc/MEF cells (Smo)): 19.6 nM

C[C@@H]1CN(c2cc(-c3nc4ccccc4n3C)c(Cl)cn2)CCN1 [Example A-157, 2-{5-chloro-2-[(3R)-3-methylpiperazin-1-yl]pyridin-4-yl}-1-methyl-1H-benzimidazole]
inhibition at 0.05 µM [1]: 95%
IC50 [1]: 35 nM
IC50 (Gli-Luc/MEF cells (Smo)): 24 nM

Cn1c(-c2cc(N3CCN(S(C)(=O)=O)CC3)ncc2F)nc2ccccc21 [Example D-6, 2-{5-fluoro-2-[4-(methylsulfonyl)piperazin-1-yl]pyridin-4-yl}-1-methyl-1H-benzimidazole]
inhibition at 0.05 µM [1]: 97%
IC50 [1]: 12 nM
IC50 (Gli-Luc/MEF cells (Smo)): 22 nM

Cn1c(-c2cc(N3CCN(C(=O)CCS(C)(=O)=O)CC3)ncc2F)nc2ccccc21 [Example D-18, 1-{4-[5-fluoro-4-(1-methyl-1H-benzimidazol-2-yl)pyridin-2-yl]piperazin-1-yl}-3-(methylsulfonyl)propan-1-one]
inhibition at 0.05 µM [1]: 100%
IC50 [1]: 11 nM
IC50 (Gli-Luc/MEF cells (Smo)): 3 nM

CN(CCO)c1cc(-c2nc3ccccc3n2C)c(Cl)cn1 [Example A-164, 2-{[5-chloro-4-(1-methyl-1H-benzimidazol-2-yl)pyridin-2-yl](methyl)amino}ethanol]
inhibition at 0.05 µM [1]: 97%
IC50 [1]: 15 nM
IC50 (Gli-Luc/MEF cells (Smo)): 14 nM

Cn1c(-c2cc(N3CCC(NS(C)(=O)=O)C3)ncc2Cl)nc2ccccc21 (stereo not drawn) [Example A-153, N-{1-[5-chloro-4-(1-methyl-1H-benzimidazol-2-yl)pyridin-2-yl]pyrrolidin-3-yl}methanesulfonamide]
inhibition at 0.05 µM [1]: 93%
IC50 [1]: 23 nM
IC50 (Gli-Luc/MEF cells (Smo)): 15 nM

COC(=O)NC1CCN(c2cc(-c3nc4ccccc4n3C)c(F)cn2)CC1 [Example D-12, methyl {1-[5-fluoro-4-(1-methy-1H-benzimidazol-2-yl)pyridin-2-yl]plpetidin-4-yl}carbamate]
inhibition at 0.05 µM [1]: 96%
IC50 [1]: 8 nM
IC50 (Gli-Luc/MEF cells (Smo)): 7.7 nM

Cn1c(-c2cc(N3CCN(C(=O)CC(C)(C)O)CC3)ncc2Cl)nc2ccccc21 [Example A-190, 4-{4-[5-chloro-4-(1-methyl-1H-benzimidazol-2-yl)pyridin-2-yl]piperazin-1-yl}-2-methyl-4-oxobutan-2-ol]
inhibition at 0.05 µM [1]: 98%
IC50 [1]: 7 nM
IC50 (Gli-Luc/MEF cells (Smo)): 1.4 nM

Cn1c(-c2cc(N3CC(c4ccncn4)C3)ncc2Cl)nc2ccccc21 [Example A-125, 2-[5-chloro-2-(3-pyrimidin-4-ylazetidin-1-yl)pyridin-4-yl]-1-methyl-1H-benzimidazole]
inhibition at 0.05 µM [1]: 57%
IC50 (Gli-Luc/MEF cells (Smo)): 135 nM

CN1CC2(CCN(c3cc(-c4nc5ccccc5n4C)c(Cl)cn3)CC2)CC1=O [Example A-77, 8-[5-chloro-4-(1-methyl-1H-benzimidazol-2-yl)pyridin-2-yl]-2-methyl-2,8-diazaspiro[4.5]decan-3-one]
inhibition at 0.05 µM [1]: 92%
IC50 [1]: 29 nM
IC50 (Gli-Luc/MEF cells (Smo)): 15 nM

Cn1c(-c2cc(N3CCn4c(CCCO)nnc4C3)ncc2Cl)nc2ccccc21 [Example A-106, 3-{7-[5-chloro-4-(1-methyl-1H-benzimidazol-2-yl)pyridin-2-yl]-5,6,7,8-tetrahydro[1,2,4]triazolo[4,3-a]pyrazin-3-yl}propan-1-ol]
inhibition at 0.05 µM [1]: 78%
IC50 [1]: 217 nM
IC50 (Gli-Luc/MEF cells (Smo)): 116 nM

Cn1c(-c2cc(N3CCC(N4CCC(O)CC4)CC3)ncc2Cl)nc2ccccc21 [Example A-119, 1′-[5-chloro-4-(1-methyl-1H-benzimidazol-2-yl)pyridin-2-yl]-1,4′-bipiperidin-4-ol]
inhibition at 0.05 µM [1]: 64%
IC50 (Gli-Luc/MEF cells (Smo)): 111 nM

CCNC(=O)NC1CCN(c2cc(-c3nc4ccccc4n3C)c(F)cn2)CC1 [Example D-8, 1-ethyl-3-{1-[5-fluoro-4-{1-methyl-1H-benzimidazol-2-yl)pyridin-2-yl]piperidin-4-yl}urea]
inhibition at 0.05 µM [1]: 95%
IC50 [1]: 6 nM
IC50 (Gli-Luc/MEF cells (Smo)): 6 nM

COCC(=O)N1CCN(c2cc(-c3nc4ccccc4n3C)c(Cl)cn2)CC1 [Example A-201, 2-{5-chloro-2-[4-(methoxyacetyl)piperazin-1-yl]pyridin-4-yl}-1-methyl-1H-benzimidazole]
inhibition at 0.05 µM [1]: 96%
IC50 [1]: 14 nM
IC50 (Gli-Luc/MEF cells (Smo)): 8.8 nM

Cn1c(-c2ccnc(N3CCS(=O)(=O)CC3)c2)nc2ccccc21 [Example A-11, 2-[2-(1,1-dioxidothiomorpholin-4-yl)pyridin-4-yl]-1-methyl-1H-benzimidazole]
inhibition at 0.05 µM [1]: 52%
IC50 [1]: 486 nM
IC50 (Gli-Luc/MEF cells (Smo)): 275 nM

Cn1c(-c2cc(N3CC(NC(=O)C4CCOCC4)C3)ncc2Cl)nc2ccccc21 [Example A-205, N-{1-[5-chloro-4-(1-methyl-1H-benzimidazol-2-yl)pyridin-2-yl]azetidin-3-yl}tetrahydro-2H-pyran-4-carboxamide]
inhibition at 0.05 µM [1]: 93%
IC50 (Gli-Luc/MEF cells (Smo)): 14.2 nM
